Where two headings read alike, the source gives them in different places.
Assays:
[1] = biological target: T1, farnésyltransférase humaine (Homo sapiens, UniProt P49354+P49356); assay: Farnesyltransferase inhibition: transfer of (3H) farnesyl from (3H) FPP to p21 H-Ras; assay type: biochemical; conditions: read-out: Activité inhibitrice IC50
T1 construct: farnésyltransférase humaine purifiée à partir de cultures de cellules THP1; endogenous in cells; host or cells: THP1 cell cultures (enzyme purified from them)
Procedure: L'activité farnésyltransférase est déterminée par la quantité de (^3H) farnésyl transférée à partir du (^3H) farnésylpyrophosphate [(^3H) FPP) sur la protéine p21 H-Ras. Le mélange réactionnel standard est composé, pour un volume final de 60 µl, de Tris-HCl 50mM, MgCl2 5mM, dithiotréitol 5 mM, octyl-β-D-glucopyranoside 0,2 %, p21 H-ras 200 picomoles, (^3H) FPP (à 61000 dpm/picomole) 4,5 picomoles.
La réaction est initiée par addition d'environ 5 ng de farnésyltransférase humaine purifiée à partir de cultures de cellules THP1. Après incubation pendant 20 minutes à 37°C en plaque de microtitration contenant 96 trous de 1 cm3 par plaque (Titer Plate®, Beckman), la réaction est stoppée par addition de 0,4 cm3 de SDS à 0,1 % dans le méthanol à 0°C. Le mélange est ensuite additionné de 0,4 cm3 d'acide trichloroacétique (TCA) à 30 % dans le méthanol. Les plaques sont laissées pendant 1 heure dans la glace. Le contenu précipité est alors retenu sur membrane en fibre de verre Filtermat®, Pharmacia) avec l'unité de filtration (Combi Cell Harvester®, Skatron) et rincé avec de l'acide trichloroacétique à 6 % dans l'eau distillée. Les membranes sont séchées au four à micro-ondes puis imprégnées de scintillant par fusion sous air chaud de Meltilex® (Pharmacia) et enfin comptées en cpm dans un compteur β-Plate® (LKB). Chaque essai est répété 3 fois.
L'unité d'activité est définie par 1 picomole de (^3H) FPP transférée sur p21 H-Ras en 20 minutes.
Les pourcentages d'inhibition sont obtenus par comparaison des essais avec et sans inhibiteur après déduction des blancs, les IC50 étant mesurées à partir des inhibitions obtenues avec 9 concentrations différentes en utilisant les logiciels Enzfitter® ou Grafit®.

[2] = system: farnésylation de la protéine Ras; assay: Inhibition of Ras protein farnesylation in THAC cells (Triton X114 extraction, Western blot); assay type: cell-based; conditions: 24 h culture, read-out: % d'inhibition sur cellules (THAC)
From the text: La lignée cellulaire est la lignée THAC (cellules CCL 39 transfectées par Ha-Ras activé) selon K. Seuwen et coll., EMBO J., 7(1) 161-168 (1988). Les cellules sont ensemencées dans des boîtes de Petri de 6 cm de diamètre contenant un milieu DMEM, sérum de veau foetal 5 %, G418 1 %.
Après 24 heures de culture, le milieu de culture est changé (avec ou sans sérum) et le produit à étudier est ajouté en solution dans le diméthylformamide (DMF), en présence ou en absence de DTT (concentrations finales de 0,5 % en DMF et 0,1mM en DTT). Après 24 heures de culture à 37°C, les cellules sont lysées dans 1 cm3 de tampon de lyse (Tris, HCI 20mM, Triton X114 1 %, MgCl2 5 mM, DIT 7 mM, NaCl 150 mM, pH = 7,4). Les lysats sont clarifiés par centrifugation à 4.000 tours/minute pendant 10 minutes. L'extraction par le Triton X114 permet de séparer la protéine Ras farnésylée de la protéine Ras non farnésylée [C. BORDIER, J. Biol. Chem., 256 (4), 1604-1607 (1981)]. La protéine Ras farnésylée qui est plus hydrophobe se trouve dans la phase détergente tandis que la protéine Ras non farnésylée est dans la phase aqueuse. Les échantillons sont dénaturés par chauffage à 95°C dans du tampon de dénaturation pour électrophorèse et déposées sur un gel de polyacrylamide à 14 %. Lorsque le colorant atteint le bas du gel, les protéines du gel sont transférées sur une membrane PVDF. […]

SMILES | IC50 ([1]; unit inferred) [nM] | also measured
CS(=O)(=O)CC[C@H](NC(=O)c1cccc2cc(NC[C@@H](N)CS)ccc12)C(=O)O [Exemple 21, acide 2(S)-[6-(2(R)-amino-3-mercapto-propylamino)-1-naphtoylamino]-4-méthylsulfonyl-butanoïque] |  | IC50 [1]: 4 nM
CSCC[C@H](NC(=O)c1cccc2c(NC(=O)[C@@H](N)CS)cccc12)C(=O)O [Exemple 1, N-[5-(2(R)-amino-3-mercapto-propionylamino)-naphthyl-1-carbonyl}-L-méthionine] | 48 | 
CSCC[C@H](NC(=O)c1cccc2c(NC[C@@H](N)CS)cccc12)C(=O)OCc1ccccc1 [Exemple 8, ester benzyliquede la N-[5-(2(R)-amino-3-mercapto-propylamino)-naphtyl-1-carbonyl]-L-méthionine] | 100 | 
COCCOCCOC(=O)[C@H](CCSC)NC(=O)c1cccc2c(NC[C@@H](N)CS)cccc12 [Exemple 9, ester 2-(2-méthoxyéthoxy) éthyliquede la N-[5-(2(R)-amino-3-mercapto-propylamino)-naphtyl-1-carbonyl]-L-méthionine] | 70 | 
CSCC[C@H](NC(=O)c1cccc2c(NC[C@@H](N)CS)cccc12)C(=O)OCCS(=O)(=O)c1ccccc1 [Exemple 10] | 21 | 
CSCC[C@H](NC(=O)c1cccc2c(NC[C@@H](N)CS)cccc12)C(=O)O [Exemple 3, N-[5-(2(R)-amino-3-mercapto-propylamino)-naphthyl-1-carbonyl]-L-méthionine] | 5.6 | 

More lines, main results first:

IC50 ([1]; unit inferred) [nM] | SMILES | also measured
80 | COC(=O)[C@H](CCSC)NC(=O)c1cccc2cc(NC[C@@H](N)CS)ccc12 [Exemple 20, ester méthyliquede la N-[6-(2(R)-amino-3-mercapto-propylamino)-naphtyl-1-carbonyl]-L-méthionine] | inhibition at 10 µM ([2]; à 10 µM): 50%
69 | CCCC[C@H](NC(=O)c1cccc2c(NC[C@@H](N)CS)cccc12)C(=O)O [Exemple 5, N-[5-(2(R)-amino-3-mercapto-propylamino)-naphthyl-1 carbonyl]-L-norleucine] | 
1.8 | CSCC[C@H](NC(=O)c1cccc2cc(NC[C@@H](N)CS)ccc12)C(=O)O [Exemple 19, N-[6-(2(R)-amino-3-mercapto-propylamino)-naphtyl-1-carbonyl]-L-méthionine] | inhibition at 50 µM ([2]; à 50 µM): 31%
